Data on 3 compounds can be found in patent US8383088B2, “Coumestan-like antioxidants and UV absorbants” (BASF SE, priority 2007, dated 2013).

A short description of the experiment: DPPH assay of antioxidative (antiradical) activity. The settings on record: measured in EC50 and 1/EC50 values. The text has this:
For tests of antioxidative activity, the DPPH assay is used. DPPH (2,2-Diphenyl-1-picrylhydrazyl) is a stable radical, which absorbs in its radical form at 515 nm. Upon reduction by an antioxidant (AH), the absorption disappears:
The rate of reaction (1) can be rather different for different antioxidants. In the case of the vitamins C and E, the equilibrium is reached in several minutes, however for other antioxidants it may also take hours. In the test, the ratio of the molar concentrations of the antioxidant and DPPH is varied (this ratio is named “EC”=efficient concentration), and the concentration of DPPH in the equilibrium state is measured for each ratio. Antiradical activity is defined as the amount of antioxidant necessary to decrease the initial DPPH-concentration by 50%, and is characterized by the so-called EC50 value. The smaller the EC50 value, the more efficient is the antioxidant. Thus, the inverse, 1/EC50, can be used to quantify the antiradical power.
Solutions of DPPH and the antioxidants in ethanol are prepared separately and added together for starting the reaction (0.5 cm^3 of a 250 μM antioxidant solution is added to 2.5 cm^3 of a 100 μM DPPH solution). The absorption is measured using a Perkin Elmer Lambda 20 spectrophotometer.
For orientation: The DPPH test is a chemical assay of radical scavenging.
On to `COc1c(O)c(O)cc2c1oc1cc(C)oc(=O)c12` [Compound A-1, 7,8-dihydroxy-6-methoxy-3-methyl-1H-pyrano[4,3-b]benzofuran-1-one], for which the “antioxidant/radical power compared to state-of-the-art antioxidants (101) and (102)” value is listed as “significantly higher antioxidant/radical power”.
With `Cl.NCCCCCc1cc2oc3cc(O)c(O)cc3c2c(=O)o1` [Compound A-23] the entry was “significantly higher antioxidant/radical power”; with `Cc1cc2oc3cc(O)c(O)cc3c2c(=O)o1` [Compound A-2, 7,8-dihydroxy-3-methyl-1H-pyrano[4,3-b]benzofuran-1-one], “significantly higher antioxidant/radical power”.
